Measured values as given in ChEMBL document CHEMBL1136842, “5-Nitrofuran-2-yl derivatives: synthesis and inhibitory activities against growing and dormant mycobacterium species” (Bioorg Med Chem Lett, 2009).
Values after ≈ are worked out from the molar mass of the structure shown.

test system: Mycobacterium tuberculosis variant microti; experiment: Antimycobacterial activity against Mycobacterium microti MTCC 1727 by agar dilution method; format: functional

First: Cc1ccc(C)c(NC(=S)N/N=C/c2ccc([N+](=O)[O-])o2)c1
Second: Cc1ccc(NC(=S)N/N=C/c2ccc([N+](=O)[O-])o2)c(C)c1
The MIC of the first is 2-fold higher: 157 µM (≈ 50 µg/mL) for the first, 78.5 µM (≈ 25 µg/mL) for the second.

First: COc1ccc(NC(=S)N/N=C/c2ccc([N+](=O)[O-])o2)cc1
Second: Cc1ccc(NC(=S)N/N=C/c2ccc([N+](=O)[O-])o2)cc1
The MIC of the first is 3.8-fold higher: 78 µM (≈ 25 µg/mL) for the first, 20.5 µM (≈ 6.24 µg/mL) for the second.

Compared with COc1ccc(NC(=S)N/N=C/c2ccc([N+](=O)[O-])o2)c(OC)c1, Cc1cccc(C)c1NC(=S)N/N=C/c1ccc([N+](=O)[O-])o1 is 4.4-fold higher in MIC: 17.8 µM (≈ 6.24 µg/mL) for the first, 78.5 µM (≈ 25 µg/mL) for the second.

Compared with O=C(O)c1cn(C2CC2)c2cc(N3CCNCC3)c(F)cc2c1=O [CIPROFLOXACIN], CO[C@H]1/C=C/O[C@@]2(C)Oc3c(C)c(O)c4c(O)c(c(/C=N/N5CCN(C)CC5)c(O)c4c3C2=O)NC(=O)/C(C)=C\C=C\[C@H](C)[C@H](O)[C@@H](C)[C@@H](O)[C@@H](C)[C@H](OC(C)=O)[C@@H]1C [RIFAMPIN] is 13-fold higher in MIC: 2.35 µM (≈ 0.779 µg/mL) for the first, 30.4 µM (≈ 25 µg/mL) for the second.

Going from NNC(=O)c1ccncc1 [ISONIAZID] to O=[N+]([O-])c1ccc(/C=N/NC(=S)Nc2ccccn2)o1, the MIC rises from 22.8 µM (≈ 3.13 µg/mL) to 48.4 µM (≈ 14.1 µg/mL) (2.1-fold).

First: O=[N+]([O-])c1ccc(/C=N/NC(=S)Nc2ccc(Cl)cc2)o1
Second: NS(=O)(=O)c1ccc(NC(=S)N/N=C/c2ccc([N+](=O)[O-])o2)cc1
The MIC of the first is 1.8-fold lower: 38.4 µM (≈ 12.5 µg/mL) for the first, 67.6 µM (≈ 25 µg/mL) for the second.

Compared with Cc1cc(C)nc(NC(=S)N/N=C/c2ccc([N+](=O)[O-])o2)c1, Cc1ccnc(NC(=S)N/N=C/c2ccc([N+](=O)[O-])o2)c1 is 1.9-fold lower in MIC: 39.1 µM (≈ 12.5 µg/mL) for the first, 20.5 µM (≈ 6.26 µg/mL) for the second.

Going from Cc1cccnc1NC(=S)N/N=C/c1ccc([N+](=O)[O-])o1 to O=[N+]([O-])c1ccc(/C=N/NC(=S)Nc2ccc(Cl)cn2)o1, the MIC rises from 10.2 µM (≈ 3.11 µg/mL) to 38.3 µM (≈ 12.5 µg/mL) (3.8-fold).

O=[N+]([O-])c1ccc(/C=N/NC(=S)Nc2ccccc2)o1 and O=[N+]([O-])c1ccc(/C=N/NC(=S)Nc2ccccc2Br)o1 are within 1.5-fold of each other in MIC: 86.1 µM (≈ 25 µg/mL) for the first, 67.1 µM (≈ 24.8 µg/mL) for the second.

Compared with CCc1cccc(CC)c1NC(=S)N/N=C/c1ccc([N+](=O)[O-])o1, O=[N+]([O-])c1ccc(/C=N/NC(=S)Nc2ncc(Br)cc2Br)o1 is 10-fold lower in MIC: 72.1 µM (≈ 25 µg/mL) for the first, 6.9 µM (≈ 3.1 µg/mL) for the second.
